Measured values from ChEMBL document CHEMBL3885861, “Open TG-GATES”.

Species: Rattus norvegicus
Experiment: Open TG-GATES - Regimen: Single
Assay type: toxicity, organism-based, Sprague-Dawley
Set-up: regimen Single, gender Male, age 6 weeks
Details: in vivo, po, 30 mg/kg, route gavage, dose level Middle; for Bas / Eos / Hb / Ht / Lym / MCH / MCHC / MCV / Mono / Neu / Plat / RBC / Ret / WBC: tissue Blood; for KIDNEY_L / KIDNEY_R / KIDNEY_TOTAL: tissue Kidney; for LIVER: tissue Liver; for A/G / ALP / ALT / AST / BUN / CRE / Ca / Cl / DBIL / GLC / IP / K / LDH / Na / PL / RALB / TBIL / TC / TG / TP / gamma-GTP: tissue Plasma

Work on `Cc1ccc2cc3c(ccc4ccccc43)c3c2c1CC3` [3-METHYLCHOLANTHRENE] yielded a TERMINAL_BW (3 h) of 211.6 g, a Bas (3 h) of 0% and an Eos (3 h) of 0.8%. For the same compound, the Hb (3 h) was 12.5 g/dL, the Ht (3 h) was 38.3% and the Lym (3 h) was 73.4%. It also gave an MCH (3 h) of 20.6 pg, an MCHC (3 h) of 32.6% and an MCV (3 h) of 63.1 fL. For the same compound, the Mono (3 h) was 3.6%, the Neu (3 h) was 21.4% and the Plat (3 h) was 120.7 x10_4/uL. For the same compound, the RBC (3 h) was 607.4 x10_4/ul, the Ret (3 h) was 10.1% and the WBC (3 h) was 93.9 x10_2/uL. It also gave a KIDNEY_L (3 h) of 0.9 g, a KIDNEY_R (3 h) of 0.9 g and a KIDNEY_TOTAL (3 h) of 1.8 g. The LIVER (3 h) was 9.5 g, the A/G (3 h) was 1 and the ALP (3 h) was 1634.6 IU/L. For the same compound, the ALT (3 h) was 41.6 IU/L, the AST (3 h) was 76 IU/L and the BUN (3 h) was 12.6 mg/dL. For the same compound, the CRE (3 h) was 0.1 mg/dL, the Ca (3 h) was 10.9 mg/dL and the Cl (3 h) was 103.3 meq/L. For the same compound, the DBIL (3 h) was 0 mg/dL, the GLC (3 h) was 177.4 mg/dL and the IP (3 h) was 8.2 mg/dL. For the same compound, the K (3 h) was 4.2 meq/L, the LDH (3 h) was 224.4 IU/L and the Na (3 h) was 139.9 meq/L. For the same compound, the PL (3 h) was 185.8 mg/dL, the RALB (3 h) was 2.9 g/dL and the TBIL (3 h) was 0.008 mg/dL. The TC (3 h) was 87.2 mg/dL, the TG (3 h) was 201.5 mg/dL and the TP (3 h) was 5.7 g/dL. The gamma-GTP (3 h) was 0.6 IU/L, the TERMINAL_BW (6 h) was 206.2 g and the Bas (6 h) was 0%. It also gave an Eos (6 h) of 0%, a Hb (6 h) of 12.9 g/dL and a Ht (6 h) of 39.5%. For the same compound, the Lym (6 h) was 77.6%, the MCH (6 h) was 20.7 pg and the MCHC (6 h) was 32.7%. The MCV (6 h) was 63.5 fL, the Mono (6 h) was 3.6% and the Neu (6 h) was 17.2%. For the same compound, the Plat (6 h) was 124.3 x10_4/uL, the RBC (6 h) was 622.8 x10_4/ul and the Ret (6 h) was 9%. The WBC (6 h) was 124.3 x10_2/uL, the KIDNEY_L (6 h) was 0.9 g and the KIDNEY_R (6 h) was 0.9 g. The KIDNEY_TOTAL (6 h) was 1.8 g, the LIVER (6 h) was 9 g and the A/G (6 h) was 1. For the same compound, the ALP (6 h) was 1407.6 IU/L, the ALT (6 h) was 35 IU/L and the AST (6 h) was 66 IU/L. It also gave a BUN (6 h) of 9 mg/dL, a CRE (6 h) of 0.1 mg/dL and a Ca (6 h) of 10.7 mg/dL. The Cl (6 h) was 104.4 meq/L, the DBIL (6 h) was 0 mg/dL and the GLC (6 h) was 169 mg/dL. The IP (6 h) was 8.9 mg/dL, the K (6 h) was 4.3 meq/L and the LDH (6 h) was 174.6 IU/L. For the same compound, the Na (6 h) was 140.3 meq/L, the PL (6 h) was 158.2 mg/dL and the RALB (6 h) was 2.9 g/dL. The TBIL (6 h) was 0.008 mg/dL, the TC (6 h) was 80.8 mg/dL and the TG (6 h) was 101.9 mg/dL. For the same compound, the TP (6 h) was 5.7 g/dL, the gamma-GTP (6 h) was 0.7 IU/L and the TERMINAL_BW (9 h) was 206.5 g. It also gave a Bas (9 h) of 0%, an Eos (9 h) of 0.6% and a Hb (9 h) of 12.7 g/dL. The Ht (9 h) was 39.4%, the Lym (9 h) was 73.2% and the MCH (9 h) was 20.7 pg. The MCHC (9 h) was 32.2%, the MCV (9 h) was 64.3 fL and the Mono (9 h) was 3.6%. It also gave a Neu (9 h) of 21.6%, a Plat (9 h) of 127.5 x10_4/uL and an RBC (9 h) of 612.8 x10_4/ul. For the same compound, the Ret (9 h) was 9.1%, the WBC (9 h) was 119.4 x10_2/uL and the KIDNEY_L (9 h) was 0.9 g. The KIDNEY_R (9 h) was 0.9 g, the KIDNEY_TOTAL (9 h) was 1.8 g and the LIVER (9 h) was 8.6 g. It also gave an A/G (9 h) of 1, an ALP (9 h) of 1625.8 IU/L and an ALT (9 h) of 34.6 IU/L. For the same compound, the AST (9 h) was 64.2 IU/L, the BUN (9 h) was 10.4 mg/dL and the CRE (9 h) was 0.1 mg/dL. For the same compound, the Ca (9 h) was 10.5 mg/dL, the Cl (9 h) was 103.9 meq/L and the DBIL (9 h) was 0.002 mg/dL. For the same compound, the GLC (9 h) was 178.4 mg/dL, the IP (9 h) was 10.2 mg/dL and the K (9 h) was 4.5 meq/L. The LDH (9 h) was 153.6 IU/L, the Na (9 h) was 141.7 meq/L and the PL (9 h) was 160 mg/dL. For the same compound, the RALB (9 h) was 2.8 g/dL, the TBIL (9 h) was 0.004 mg/dL and the TC (9 h) was 84 mg/dL. It also gave a TG (9 h) of 109.2 mg/dL, a TP (9 h) of 5.6 g/dL and a gamma-GTP (9 h) of 0.8 IU/L. For the same compound, the TERMINAL_BW (24 h) was 216.2 g, the Bas (24 h) was 0% and the Eos (24 h) was 0.2%. For the same compound, the Hb (24 h) was 12.6 g/dL, the Ht (24 h) was 38.1% and the Lym (24 h) was 80.6%. For the same compound, the MCH (24 h) was 20.6 pg, the MCHC (24 h) was 32.9% and the MCV (24 h) was 62.6 fL. The Mono (24 h) was 3.8%, the Neu (24 h) was 14.2% and the Plat (24 h) was 127.8 x10_4/uL. For the same compound, the RBC (24 h) was 608 x10_4/ul, the Ret (24 h) was 8% and the WBC (24 h) was 107.4 x10_2/uL. The KIDNEY_L (24 h) was 0.9 g, the KIDNEY_R (24 h) was 0.9 g and the KIDNEY_TOTAL (24 h) was 1.9 g. For the same compound, the LIVER (24 h) was 11 g, the A/G (24 h) was 1 and the ALP (24 h) was 2072.4 IU/L. It also gave an ALT (24 h) of 41.2 IU/L, an AST (24 h) of 77.2 IU/L and a BUN (24 h) of 13.7 mg/dL. For the same compound, the CRE (24 h) was 0.1 mg/dL, the Ca (24 h) was 10.9 mg/dL and the Cl (24 h) was 103.4 meq/L. It also gave a DBIL (24 h) of 0 mg/dL, a GLC (24 h) of 173.8 mg/dL and an IP (24 h) of 7.1 mg/dL. For the same compound, the K (24 h) was 4.7 meq/L, the LDH (24 h) was 281.4 IU/L and the Na (24 h) was 141.5 meq/L. For the same compound, the PL (24 h) was 165.2 mg/dL, the RALB (24 h) was 2.8 g/dL and the TBIL (24 h) was 0.004 mg/dL. It also gave a TC (24 h) of 82.6 mg/dL, a TG (24 h) of 152.7 mg/dL and a TP (24 h) of 5.5 g/dL. It also gave a gamma-GTP (24 h) of 0.9 IU/L.
